Results on five compounds are retold here after patent US6569878B1, “Substituted 4-amino-thiazol-2-yl compounds as cyclin-dependent kinase inhibitors” (Agouron Pharmaceuticals Inc., priority 1997, dated 2003).

In assay [1] the target is T1, complex of human CDK4 and cyclin D3 (Homo sapiens, UniProt P11802).
T1 construct: made in house; host or cells: insect cells, co-infected with baculovirus
Nature of the assay: Inhibition of CDK4/cyclin D retinoblastoma kinase activity (D-type cyclin is D3). Type of assay: biochemical. Conditions: superscript a: D-type cyclin is D3; apparent Ki; read-out: Ki CDK 4/D. Summed up: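 Apparent Ki derived by fitting background-corrected activity to competitive (or, for tight binders, competitive tight-binding) equations with measured ATP Km. Rb phosphorylation by radiolabelled ATP was measured at 30°C, 20 min standard or 60 min at 5 nM complex for tight binders, via nitrocellulose capture and phosphorimager.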

The target in assay [2] is T2, CDK2/cyclin A (Homo sapiens, UniProt P24941).
T2 construct: made in house; host or cells: CDK2: insect cells (baculovirus); cyclin A: E. coli, then limited proteolysis
Nature of the assay: Inhibition of CDK2/cyclin A retinoblastoma kinase activity. Conditions: read-out: Ki CDK 2/A. The format is biochemical. In outline: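 Baculovirus-expressed CDK2 with excess proteolyzed cyclin A (or purified complex), 150 nM or 5 nM, phosphorylating an Rb fragment with 25 μM [32/33P]ATP, pH 7.4, 30° C, 20 min. Filter-captured radioactivity by phosphorimager; apparent Ki from fits to competitive or tight-binding competitive inhibition using measured ATP Km.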

For assay [3], the target named is T3, human CDK1 (cdc2) and cyclin B (Homo sapiens, UniProt P06493).
T3 construct: purchased New England Biolabs (Beverly Mass.)
T3 sequence (P06493 whole entry): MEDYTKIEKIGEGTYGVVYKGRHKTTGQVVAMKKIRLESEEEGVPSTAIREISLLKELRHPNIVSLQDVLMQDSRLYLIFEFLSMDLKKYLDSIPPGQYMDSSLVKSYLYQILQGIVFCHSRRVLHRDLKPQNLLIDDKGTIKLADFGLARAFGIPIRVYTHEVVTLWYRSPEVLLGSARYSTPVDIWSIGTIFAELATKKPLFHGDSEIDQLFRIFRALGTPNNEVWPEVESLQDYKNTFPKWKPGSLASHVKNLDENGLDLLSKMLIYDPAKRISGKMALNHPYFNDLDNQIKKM
T3 sequence (P14635 whole entry partner): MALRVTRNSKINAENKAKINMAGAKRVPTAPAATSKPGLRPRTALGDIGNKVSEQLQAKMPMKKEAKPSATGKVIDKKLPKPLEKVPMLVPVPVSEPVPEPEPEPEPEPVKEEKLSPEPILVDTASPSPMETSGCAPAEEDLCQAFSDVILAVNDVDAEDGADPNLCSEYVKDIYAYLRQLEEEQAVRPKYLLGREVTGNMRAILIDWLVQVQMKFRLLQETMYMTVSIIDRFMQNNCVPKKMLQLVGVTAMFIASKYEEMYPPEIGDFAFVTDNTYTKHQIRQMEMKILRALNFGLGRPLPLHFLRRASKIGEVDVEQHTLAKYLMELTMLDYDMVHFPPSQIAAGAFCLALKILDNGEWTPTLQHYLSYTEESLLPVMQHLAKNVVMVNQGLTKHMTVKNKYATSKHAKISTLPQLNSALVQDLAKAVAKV
Nature of the assay: Inhibition of CDK1(cdc2)/cyclin B histone H1 kinase activity. The note with it: read-out: Ki CDK 1/B. The format is biochemical. In outline: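 CDK1/cyclin B (commercial, or CDK1/GST-cyclin B1 from co-infected insect cells) phosphorylated histone H1 with 25 μM [32/33P]ATP at pH 7.4, 30° C for 20 min, 2% DMSO. Product captured on phosphocellulose and read by phosphorimager; apparent Ki from competitive or tight-binding fits, with Km for ATP determined.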

Assay [4] deals with HCT116. The experiment in a line: Inhibition of cell growth, MTT assay, HCT116. The format is cell-based, human. Conditions: Homo sapiens, HCT-116. Summed up:
(§1)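 Cells rested 4 h after plating, then exposed to graded compound concentrations in 0.5% (v/v) DMSO for four to six days (cell-type dependent) at 37° C, 5% CO2. Viability was read by MTT (0.2 mg/mL final, 4 h at 37° C), with DMSO-solubilized formazan measured at 540 nm.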
Background: Tetrazolium assays rely on reduction of a dye to a coloured formazan, in cell work by metabolically active cells.

The test system of assay [5] is U2-OS. The experiment in a line: Inhibition of cell growth, MTT assay, U2-OS. Conditions: Homo sapiens, U2OS. The format is cell-based. In outline: as §1
The subject of assay [6] is Saos-2. The experiment in a line: Inhibition of cell growth, MTT assay, Saos-2. The format is cell-based. The note with it: Homo sapiens; Saos-2, MTT assay. Summed up:
as §1

Assay [7] concerns COLO-205. Nature of the assay: Inhibition of cell growth, MTT assay, COLO-205. The note with it: Homo sapiens; COLO-205, MTT assay. The format is cell-based. The method, then: (§2) The water-insoluble purple formazan product was then detected spectrophotometrically. […] Plates were incubated for four hours before addition of inhibitor compounds. Different concentrations of inhibitor compounds were added in 0.5% (v/v) dimethylsulfoxide (15 μL/well), and cells were incubated at 37° C. (5% CO2) for four to six days (depending on cell type). At the end of the incubation, MTT was added to a final concentration of 0.2 mg/mL, and cells were incubated for 4 hours more at 37° C. After centrifugation of the plates and removal of medium, the absorbance of the formazan (solubilized in dimethylsulfoxide) was measured at 540 nm.

For assay [8], the system named is M14 melanoma. The experiment in a line: Inhibition of cell growth, MTT assay, M14 melanoma. The format is cell-based. The note with it: Homo sapiens. The method, then: as §2
The subject of assay [9] is RXF-393. Nature of the assay: Inhibition of cell growth, MTT assay, RXF-393. Conditions: Homo sapiens; RXF-393, MTT assay. Type of assay: cell-based. The method, then: as §2
Assay [10] deals with MCF-7. The experiment in a line: Inhibition of cell growth, MTT assay, MCF-7. The format is cell-based. The note with it: MCF-7, MTT assay; for IC50 / IC90: Homo sapiens, MCF7. The method, then:
as §2

For assay [11], the system named is MDA-MB-468. The experiment in a line: Inhibition of cell growth, MTT assay, MDA-MB-468. Type of assay: cell-based. Conditions: Homo sapiens; MDA-MB-468, MTT assay. The protocol: as §2
Assay [12] concerns phosphorylation of the retinoblastoma protein (pRb) in HCT-116 cells. The experiment in a line: pRb immunoblotting (anti-Rb antibody). Type of assay: cell-based, human. The note with it: five micromolar of each compound for 12 hours, western blot. The protocol: (§3) The ability of compounds to inhibit phosphorylation of the retinoblastoma protein (pRb) was assessed by western blot analysis. An anti-Rb antibody was used to measure the conversion of hyper-phosphorylated pRb to hypo-phosphorylated pRb.
(§4) Human colon tumor cells (HCT-116 cells; 5×10^6) were plated on […] dishes and allowed to grow overnight. Five micromolar of each compound was added for 12 hours. The cells were then collected and centrifuged. The cell pellets were lysed by the addition of 100 μL lysis buffer (50 mM HEPES (pH 7.0), 250 mM NaCl, 5 mM ethylenediaminetetraacetic acid, 0.1% Nonidet P-40, 1 mM dithiothreitol, 2 mM sodium pyrophosphate, 1 mM sodium orthovanadate, 1 μg/ml aprotonin, 1 μg/ml leupeptin, 50 μg/ml phenylmethylsulfonyl fluoride). Forty micrograms of protein were separated by sodium dodecyl sulfate-polyacrylamide gel electrophoresis (SDS-PAGE) on a 6% gel. The proteins were transferred to nitrocellulose and blocked with 5% blocking buffer in Tris-buffered saline overnight. The anti-Rb antibody (Pharmingen), the anti-phospho-Rb (Ser 780) antibody (MBL), and secondary antibody were incubated for 1 hour at room temperature followed by three wash steps in 0.01% Tween-20 in Tris-buffered saline. The Rb protein was detected using chemiluminescence according to the manufacturer (Amersham).
For orientation: A western blot detects proteins with antibodies after separation by electrophoresis.

The subject of assay [13] is pRb phosphorylation at serine 780 in HCT-116 cells. The experiment in a line: pRb immunoblotting (anti-phospho-Rb (ser780) antibody). Type of assay: cell-based, human. The note with it: five micromolar of each compound for 12 hours, western blot, anti-phospho-Rb (Ser 780) antibody. The protocol:
as §3, §4

For orientation: IC90 means the concentration at which the effect reaches the 90% level. Read a high IC90 as a need for much substance. One may read the IC50 as the concentration that inhibits the measured activity by half.

Counter-ions that a name gives are not always drawn. Some results are limits rather than exact numbers.

T1 sequence (P11802 whole entry): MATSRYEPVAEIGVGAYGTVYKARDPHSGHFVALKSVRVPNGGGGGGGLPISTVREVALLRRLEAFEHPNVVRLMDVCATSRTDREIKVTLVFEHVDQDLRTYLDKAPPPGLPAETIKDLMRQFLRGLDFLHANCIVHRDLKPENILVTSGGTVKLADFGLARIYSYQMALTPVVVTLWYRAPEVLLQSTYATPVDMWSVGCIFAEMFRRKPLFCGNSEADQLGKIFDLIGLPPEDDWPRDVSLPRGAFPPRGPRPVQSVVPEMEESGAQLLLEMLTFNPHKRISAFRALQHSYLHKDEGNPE
T1 sequence (P30281 whole entry partner): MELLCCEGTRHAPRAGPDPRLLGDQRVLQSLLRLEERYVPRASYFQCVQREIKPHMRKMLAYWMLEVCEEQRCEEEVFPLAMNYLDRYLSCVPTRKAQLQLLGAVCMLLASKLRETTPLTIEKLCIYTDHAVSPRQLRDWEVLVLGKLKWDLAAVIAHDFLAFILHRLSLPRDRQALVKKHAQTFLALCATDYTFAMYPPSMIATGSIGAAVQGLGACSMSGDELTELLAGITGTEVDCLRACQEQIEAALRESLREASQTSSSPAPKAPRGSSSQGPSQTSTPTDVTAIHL

Consider `Cc1ccsc1C(=O)c1sc(Nc2ccc(S(N)(=O)=O)cc2)nc1N` [C(48), 4-[4-Amino-5-(3-methyl-thiophene-2-carbonyl)-thiazol-2-ylamino]-benzenesulfonamide], for which the Ki in assay [1] came out at 14 nM; in [2], 11.1 nM; in assay [3] it was 15 nM. Besides, the IC90 turned out to be 700 nM in assay [4]; 1500 nM in [5]; 750 nM in assay [6]; 600 nM in assay [7]; 1800 nM in assay [8]; 1600 nM in [9]. Further, the IC90 is above 25000 nM in assay [10] and 600 nM in assay [11]. The IC50 in assay [5] was determined as 1000 nM; in assay [6], 420 nM; in assay [7] it was 290 nM; in assay [8], 600 nM; in [9], 800 nM; in [10], 2600 nM. In assay [11], this compound showed an IC50 of 260 nM. Besides, in [10] (concentration not given), the “% inhibition of growth in parentheses after >25” value is reported as “(82%)”. Moreover, the “Inhibits pRb phosphorylation” value in [12] is “+”. Further, the “Inhibits pRb (ser 780) phosphorylation” value in [13] is listed as “+”.
With `CN1CCN(c2ccc(Nc3nc(N)c(C(=O)c4c(Cl)cc(C(F)(F)F)cc4Cl)s3)cc2)CC1` [C(81)], the Ki in [1] worked out at 12.3 nM; in assay [2] it was 872 nM; in assay [3], 1240 nM. The IC50 in assay [4] was 10000 nM; in assay [5] it was 7900 nM; in [6], 13000 nM; in [7], above 5000 nM; in assay [8], 3800 nM; in assay [9], above 5000 nM. Further, the IC50 is 3900 nM in assay [10] and 4700 nM in assay [11]. Further, the IC90 in assay [4] is 20000 nM; in [5], 12000 nM; in assay [6], 22000 nM; in assay [8], above 5000 nM; in assay [10], 16000 nM; in assay [11], 9300 nM. Also, the “Inhibits pRb phosphorylation” value in [12] is “+”. Moreover, in assay [13], the “Inhibits pRb (ser 780) phosphorylation” value was “+”.
On to `Nc1nc(Nc2ccc(S(N)(=O)=O)cc2)sc1C(=O)c1c(F)cccc1F` [C(85), 4-[4-Amino-5-(2,6-difluoro-benzoyl)-thiazol-2-ylamino]-benzenesulfonamide], for which the figures for the Ki in assay [1], in [2] and in assay [3] were 13 nM, 5.7 nM and 2.2 nM, respectively. For the same compound, the IC50 in [4] was determined as 250 nM; in [5] it was 1700 nM; in [6], 280 nM; in [7], 240 nM; in [8], 710 nM; in [9], 1200 nM. Also, the IC50 worked out at 3900 nM in assay [10] and 220 nM in [11]. Moreover, the IC90 in assay [4] turned out to be 560 nM; in assay [5] it was 2800 nM; in [6] it was 670 nM; in assay [7], 580 nM; in assay [8], 2200 nM; in assay [9] it was 3000 nM. For the same compound, the IC90 came to 13000 nM in assay [10] and 590 nM in assay [11]. The “Inhibits pRb phosphorylation” value in assay [12] is “+”. The “Inhibits pRb (ser 780) phosphorylation” value in [13] is “+”.
In the case of `Cc1ccsc1C(=O)c1sc(Nc2ccc(N3CCNCC3)cc2)nc1N` [H(1), [4-Amino-2-(4-piperazin-1-yl-phenylamino)-thiazol-5-yl]-(3-methyl-thiophen-2-yl)-methanone Trihydrochloride], the figures for the Ki in assay [1], in [2] and in assay [3] were 8.2 nM, 370 nM and 681 nM, respectively. Also, the IC50 in assay [4] worked out at 580 nM; in [5], 850 nM; in assay [6], 730 nM; in assay [7], 200 nM; in assay [8] it was 2400 nM; in assay [9] it was 460 nM. In addition, the 90% effect concentration (IC90) in [4] came to 1400 nM; in assay [5], 1500 nM; in assay [6] it was 1400 nM; in [7], 600 nM; in assay [8], 9000 nM; in assay [9], 880 nM. Moreover, in assay [12], the “Inhibits pRb phosphorylation” value was “+”. The “Inhibits pRb (ser 780) phosphorylation” value in assay [13] is “+”.
As for `Nc1nc(Nc2ccc(N3CCNCC3)cc2)sc1C(=O)c1c(F)cccc1F` [J(2), [4-Amino-2-(4-piperazin-1-yl-phenylamino)-thiazol-5-yl]-(2,6-difluoro-phenyl)-methanone], the Ki in [1] was 6.4 nM; in assay [2], 135 nM; in assay [3], 405 nM. Further, the IC50 in assay [4] came to 300 nM; in [5], 1700 nM; in assay [6], 580 nM; in assay [7] it was 900 nM; in assay [8], 650 nM; in assay [9] it was 550 nM. Moreover, the concentration for half-maximal inhibition (IC50) in assay [10] turned out to be 480 nM; in [11], 340 nM. Besides, the concentration for an effect of 90% (IC90) in [4] came to 730 nM; in assay [5], 2800 nM; in assay [6], 1300 nM; in assay [7] it was 2700 nM; in [8] it was 2000 nM; in [9], 1100 nM. In addition, the IC90 in assay [10] came out at 1700 nM; in [11], 700 nM. Besides, the “Inhibits pRb phosphorylation” value in assay [12] is “+”. In addition, in assay [13], the “Inhibits pRb (ser 780) phosphorylation” value is “+”.
